Like-named read-outs stand apart in the source and are kept apart here.
Experiments:
Human Factor XIIa = target: T1, Human Factor XIIa (Homo sapiens, UniProt P00748); experiment: Determination of FXIIa inhibition (in vitro IC50 assay, fluorogenic substrate H-DPro-Phe-Arg-AFC); assay type: biochemical
T1 construct: purchased Enzyme Research Laboratories
T1 sequence (P00748 373-615 limits assumed): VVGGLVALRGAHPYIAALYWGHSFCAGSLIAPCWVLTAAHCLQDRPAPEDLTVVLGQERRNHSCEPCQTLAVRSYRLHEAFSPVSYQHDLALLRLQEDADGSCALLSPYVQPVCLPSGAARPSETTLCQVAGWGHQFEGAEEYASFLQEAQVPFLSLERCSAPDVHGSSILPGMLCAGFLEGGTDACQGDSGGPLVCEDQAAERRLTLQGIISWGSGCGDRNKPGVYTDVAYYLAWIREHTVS
T1 sequence (P00748 20-372 partner limits assumed): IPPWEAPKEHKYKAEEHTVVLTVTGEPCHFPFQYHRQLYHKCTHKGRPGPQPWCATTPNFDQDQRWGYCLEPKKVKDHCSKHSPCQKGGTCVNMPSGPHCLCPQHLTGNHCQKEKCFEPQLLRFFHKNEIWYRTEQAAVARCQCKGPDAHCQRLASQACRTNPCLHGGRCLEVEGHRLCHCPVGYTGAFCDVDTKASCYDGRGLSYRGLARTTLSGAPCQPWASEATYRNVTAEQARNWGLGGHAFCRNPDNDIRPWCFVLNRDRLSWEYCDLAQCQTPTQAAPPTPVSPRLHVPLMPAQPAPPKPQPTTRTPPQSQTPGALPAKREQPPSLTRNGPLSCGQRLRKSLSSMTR
How it was run: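 Human FXIIa incubated at 25 °C with compound and H-DPro-Phe-Arg-AFC at its Km concentration. Linear fluorescence increase monitored over 5 min, expressed as % of uninhibited activity; IC50 is concentration giving 50% inhibition.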

human PKal = target: T2, human PKal (Homo sapiens, UniProt P03952); experiment: Determination of related protease inhibition: plasma kallikrein; assay type: biochemical
T2 construct: FXIIa converts plasma prekallikrein (PK) to plasma kallikrein (PKa)
Method: (§1) In vitro inhibition of related proteases was determined using an IC50 assay based on standard literature methods (see e.g. Shori et al., Biochem. Pharmacol., 1992,43, 1209; Bouckaert et al., European Journal of Medicinal Chemistry 110 (2016) 181). Human serine protease enzyme Plasma Kallikrein, KLK1, FXa, Plasmin, Thrombin and Trypsin were assayed for enzymatic activity using an appropriate fluorogenic substrate at Km concentration, FXIa at fixed substrate concentration of 100 μM and various concentrations of the test compound. Protease activity was measured by monitoring the accumulation of liberated fluorescence from the substrate over 5 min at 25 °C. The linear rate of fluorescence increase per minute was expressed as percentage (%) activity. IC50 values were calculated as the concentration of inhibitor giving 50% inhibition of the uninhibited enzyme activity (100%).

human KLK1 = human KLK1 (Homo sapiens, UniProt P06870); experiment: Determination of related protease inhibition: KLK1; assay type: biochemical
Method: as §1

human plasmin = human plasmin (Homo sapiens, UniProt P00747); experiment: Determination of related protease inhibition: plasmin; assay type: biochemical
Method: as §1

human FXa = human FXa (Homo sapiens, UniProt P00742); experiment: Determination of related protease inhibition: FXa; assay type: biochemical
Method: as §1

human thrombin = human thrombin (Homo sapiens, UniProt P00734); experiment: Determination of related protease inhibition: thrombin; assay type: biochemical
Method: as §1

human trypsin = experiment: Determination of related protease inhibition: trypsin; assay type: biochemical; details: fluorogenic substrate at Km concentration, 25 °C
Method: as §1

human FXIa = human FXIa (Homo sapiens, UniProt P03951); experiment: Determination of related protease inhibition: FXIa; assay type: biochemical
Method: as §1

[1] = tested on: patients with type I/II hereditary angioedema (HAE); details: phase 3, monthly prophylactic subcutaneous treatment; cited from earlier work
[2] = human Factor XIIa, fluorogenic substrate H-DPro-Phe-Arg-AFC at Km concentration, 5 min, 25 °C, class symbols, read-out: Human FXIIa IC50
[3] = fluorogenic substrate at Km concentration, 25 °C, read-out: IC50 (human PKal)
[4] = fluorogenic substrate at Km concentration, 25 °C, read-out: IC50 (human KLK1)
[5] = fluorogenic substrate at Km concentration, 25 °C, read-out: IC50 (human plasmin)
[6] = fluorogenic substrate at Km concentration, 25 °C, read-out: IC50 (human FXa)
[7] = fluorogenic substrate at Km concentration, 25 °C, read-out: IC50 (human thrombin)

T2 sequence (P03952 391-638 limits assumed): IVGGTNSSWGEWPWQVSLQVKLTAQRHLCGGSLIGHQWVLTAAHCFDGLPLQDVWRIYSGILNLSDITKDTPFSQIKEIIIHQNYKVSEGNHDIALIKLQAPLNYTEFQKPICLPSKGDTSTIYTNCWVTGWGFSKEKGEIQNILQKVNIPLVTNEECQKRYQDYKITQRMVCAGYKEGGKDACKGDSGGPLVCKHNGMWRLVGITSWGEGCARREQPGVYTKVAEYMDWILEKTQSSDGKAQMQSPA
T2 sequence (P03952 20-390 partner limits assumed): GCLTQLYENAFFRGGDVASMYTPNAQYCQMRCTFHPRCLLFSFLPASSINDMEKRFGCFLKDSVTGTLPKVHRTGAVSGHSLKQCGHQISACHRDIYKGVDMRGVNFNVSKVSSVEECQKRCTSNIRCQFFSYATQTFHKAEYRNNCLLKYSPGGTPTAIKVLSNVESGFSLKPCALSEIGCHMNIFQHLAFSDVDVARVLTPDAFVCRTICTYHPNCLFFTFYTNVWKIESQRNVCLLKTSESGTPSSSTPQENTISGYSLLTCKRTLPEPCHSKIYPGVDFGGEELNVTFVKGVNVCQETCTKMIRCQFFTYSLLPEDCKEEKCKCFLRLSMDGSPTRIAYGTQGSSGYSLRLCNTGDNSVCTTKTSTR
Chain of human FXa (P00742 235-488 limits assumed): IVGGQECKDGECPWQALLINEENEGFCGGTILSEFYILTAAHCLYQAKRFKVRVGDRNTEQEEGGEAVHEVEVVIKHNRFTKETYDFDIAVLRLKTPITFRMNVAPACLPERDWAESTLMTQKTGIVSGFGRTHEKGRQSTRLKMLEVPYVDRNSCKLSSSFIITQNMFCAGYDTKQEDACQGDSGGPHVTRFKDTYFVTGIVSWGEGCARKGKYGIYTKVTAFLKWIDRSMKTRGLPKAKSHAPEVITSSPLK
Chain of human FXa (P00742 41-179 partner limits assumed): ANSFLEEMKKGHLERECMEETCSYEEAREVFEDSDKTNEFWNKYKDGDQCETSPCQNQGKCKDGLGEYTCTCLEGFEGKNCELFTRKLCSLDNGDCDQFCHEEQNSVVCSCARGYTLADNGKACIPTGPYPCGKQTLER
Chain of human plasmin (P00747 581-810 limits assumed): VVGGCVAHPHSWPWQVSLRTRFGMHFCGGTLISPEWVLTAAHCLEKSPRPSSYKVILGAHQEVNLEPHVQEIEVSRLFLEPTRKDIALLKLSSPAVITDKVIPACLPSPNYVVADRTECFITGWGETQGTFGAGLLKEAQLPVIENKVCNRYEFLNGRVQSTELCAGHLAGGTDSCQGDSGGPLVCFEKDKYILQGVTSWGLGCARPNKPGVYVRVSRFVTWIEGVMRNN
Chain of human plasmin (P00747 97-580 partner limits assumed): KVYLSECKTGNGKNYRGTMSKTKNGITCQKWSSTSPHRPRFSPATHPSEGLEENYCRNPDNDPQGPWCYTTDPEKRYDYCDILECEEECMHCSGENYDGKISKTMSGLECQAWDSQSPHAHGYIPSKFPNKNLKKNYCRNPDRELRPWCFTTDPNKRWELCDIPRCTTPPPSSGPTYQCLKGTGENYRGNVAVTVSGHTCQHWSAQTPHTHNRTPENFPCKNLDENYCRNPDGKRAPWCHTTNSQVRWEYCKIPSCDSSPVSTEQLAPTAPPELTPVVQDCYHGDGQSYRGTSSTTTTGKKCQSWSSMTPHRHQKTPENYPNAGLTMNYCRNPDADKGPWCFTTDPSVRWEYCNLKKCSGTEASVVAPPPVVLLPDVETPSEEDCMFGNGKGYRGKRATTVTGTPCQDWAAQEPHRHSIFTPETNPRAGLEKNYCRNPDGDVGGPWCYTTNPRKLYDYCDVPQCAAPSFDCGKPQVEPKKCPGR
Chain of human KLK1 (P06870 25-262): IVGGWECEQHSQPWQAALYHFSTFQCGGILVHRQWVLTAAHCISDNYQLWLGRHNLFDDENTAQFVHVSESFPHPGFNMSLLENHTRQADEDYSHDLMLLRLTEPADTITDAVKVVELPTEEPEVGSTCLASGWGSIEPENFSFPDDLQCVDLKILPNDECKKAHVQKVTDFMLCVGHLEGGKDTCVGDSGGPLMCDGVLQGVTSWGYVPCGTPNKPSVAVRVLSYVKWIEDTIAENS
Chain of human FXIa (P03951 388-625 limits assumed): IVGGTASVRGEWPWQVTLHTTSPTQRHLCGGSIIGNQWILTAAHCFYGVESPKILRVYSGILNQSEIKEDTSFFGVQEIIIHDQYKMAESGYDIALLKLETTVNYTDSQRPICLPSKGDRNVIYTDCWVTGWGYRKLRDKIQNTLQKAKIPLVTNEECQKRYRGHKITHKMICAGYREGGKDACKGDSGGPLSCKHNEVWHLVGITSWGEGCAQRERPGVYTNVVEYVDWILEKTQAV
Chain of human FXIa (P03951 19-387 partner limits assumed): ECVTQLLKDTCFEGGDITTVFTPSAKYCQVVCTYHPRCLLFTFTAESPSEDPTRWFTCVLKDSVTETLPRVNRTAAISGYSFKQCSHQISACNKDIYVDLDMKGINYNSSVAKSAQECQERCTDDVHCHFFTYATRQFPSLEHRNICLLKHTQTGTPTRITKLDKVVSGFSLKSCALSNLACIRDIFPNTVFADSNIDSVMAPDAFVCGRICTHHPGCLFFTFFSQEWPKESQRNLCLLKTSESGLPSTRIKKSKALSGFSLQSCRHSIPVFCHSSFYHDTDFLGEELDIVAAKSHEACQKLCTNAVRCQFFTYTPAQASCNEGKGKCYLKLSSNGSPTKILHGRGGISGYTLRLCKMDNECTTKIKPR

Compound	IC50 (Human Factor XIIa; [2])	IC50 (human PKal; [3])	IC50 (human KLK1; [4])	IC50 (human plasmin; [5])	IC50 (human FXa; [6])	IC50 (human thrombin; [7])	further results
Cn1ccc(OCC23CN(C(=O)CC4CCCCC4)C(CNc4cccc5c(N)nccc45)(C2)C3)cc1=O [Example 5, 4-((1-(((1-aminoisoquinolin-5-yl)amino)methyl)-2-(2-cyclohexylacetyl)-2-azabicyclo[2.1.1]hexan-4-yl)methoxy)-1-methylpyridin-2(1H)-one]	0.01 to 0.1 µM	> 40 µM	1 to 3 µM	3 to 10 µM	10 to 40 µM	10 to 40 µM	IC50 (human trypsin): 10 to 40 µM
Cc1cc(OCC23CN(C(=O)C4CC5(CCOCC5)C4)C(CNc4cccc5c(N)nccc45)(C2)C3)cc(=O)n1C [Example 20, 4-((1-(((1-aminoisoquinolin-5-yl)amino)methyl)-2-(7-oxaspiro[3.5]nonane-2-carbonyl)-2-azabicyclo[2.1.1]hexan-4-yl)methoxy)-1,6-dimethylpyridin-2(1H)-one]	0.01 to 0.1 µM	> 40 µM	10 to 40 µM	10 to 40 µM	10 to 40 µM	> 40 µM	IC50 (human FXIa; fixed substrate concentration of 100 μM, 25 °C, read-out: IC50 (human FXla)): 10 to 40 µM
Cn1ccc(OCC23CN(C(=O)NC4(c5ccccc5)CC4)C(CNc4cccc5c(N)nccc45)(C2)C3)cc1=O [Example 30, 1-(((1-Aminoisoquinolin-5-yl)amino)methyl)-4-(((1-methyl-2-oxo-1,2-dihydropyridin-4-yl)oxy)methyl)-N-(1-phenylcyclopropyl)-2-azabicyclo[2.1.1]hexane-2-carboxamide]	–	–	–	–	–	–	IC50 (Human Factor XIIa): 0.001 to 0.01 µM; IC50 (human PKal): 10 to 40 µM; IC50 (human KLK1): 1 to 3 µM; IC50 (human plasmin): 10 to 40 µM; IC50 (human FXa): 10 to 40 µM; IC50 (human FXIa): 3 to 10 µM; IC50 (human thrombin): > 40 µM
Garadacimab: Garadacimab (CSL-312), a monoclonal antibody inhibitory against FXIIa	–	–	–	–	–	–	attacks in patients with type I/II hereditary angioedema [1]: reduce attacks

— patent US20260347347A1, “2-AZA-AND 2-OXABICYCLO[2.1.1]HEXANE DERIVATIVES AS FACTOR XIIA ENZYME INHIBITORS” (KALVISTA PHARMACEUTICALS LIMITED, priority 2022, published 2026)
